According to article PMC4667898, “Antibody Binding Selectivity: Alternative Sets of Antigen Residues Entail High-Affinity Recognition” (PLoS ONE, 2015):

Tested on: scFv1F4-QL34S
Assay: PEPperCHIP peptide array, spot fluorescence after staining with DyLight680-labeled scFv
Format: binding
Method: ScFv1F4-QL34S labeling with DyLight680, peptide array synthesis and binding detection were performed by PEPperPRINT GmbH (PEPperCHIP® Platform Technology, Heidelberg, Germany). The permutation scans were carried out on the WT decapeptide ^6TAMFQDPQER^15 and on its variants. In a permutation scan, the effect on binding of replacing each of the ten peptide positions by all amino-acids except cysteine is analyzed, which requires the synthesis of 190 spot peptides per starting peptide (19 amino-acids at 10 positions). Two arrays were prepared, each containing the permutation analysis of the WT peptide and of 19 variants. All peptides were synthesized in duplicate (7,600 peptide spots per array). The peptide arrays were stained with the DyLight680-labeled scFv1F4-QL34S. The permutation scans of the WT peptide and of variant ^6TAMFQDPFER^15 are highlighted by white frames. The staining pattern of array A (S1 Fig) was published previously.
The objective was to investigate whether a starting amino-acid replacement modifies the effect on binding of amino-acid changes at neighboring positions. For example the effect of a deleterious starting change could be compensated by a replacement elsewhere. Residue interdependences may also be found in the case of non-deleterious starting replacements. They can be identified by comparing the permutation patterns of the WT and variant peptides. Arrays A [28] (S1 Fig) and B (Fig 1) each contained the permutation scans of the WT decapeptide ^6TAMFQDPQER^15 and of nineteen variants. Data recorded for the WT and 14 variant peptides of array A were described previously. The data presented here include all permutation scans in array B (WT and 19 variants), together with those of 5 variants in array A. One of these was performed twice in array A (peptide ^6TRMFQDVQER^15). Therefore the data include the permutations scans of the WT and of 23 variant decapeptides (Table 1), each of them being recorded at least in duplicate.
The repeatability of fluorescence measurements can be assessed because: i/ all peptides were synthesized in duplicate (Fig 1), ii/ the duplicated scan of peptide ^6TRMFQDVQER^15 was repeated in array A and iii/ several peptides occur repeatedly within a same or in different families. Array B contained 3,222 different peptides, with 105 peptides repeated between 6 and 46 times.
The signal intensity ranges differed in the two arrays: 6,800 and 18,100 for the scFv—WT decapeptide interaction in arrays A and B, respectively (Table 1). However normalization of the intensity values with respect to the mean value of the scFv1F4-WT peptide intensity in each panel, produced well-superimposed patterns (Fig 2). […] In addition, assuming that T6 is not part of the epitope, the variability observed for this position (standard deviation = 0.12) provides insight into the statistical significance of the normalized intensities.

[1] = array B, mean intensity relative to WT decapeptide of array B
[2] = array A, mean intensity relative to WT decapeptide of array A

| Sequence | % of WT signal [1] [%] | also measured |
| --- | --- | --- |
| TAMFQRAQER [starting variant of the WT decapeptide on array B] | 3 | – |
| TAMFQDPQER [WT decapeptide, residues 6-15 of HPV16-E6 oncoprotein, array-synthesized] | 100 | – |
| TAMFQTPQER [starting variant of the WT decapeptide on array B] | 3 | – |
| TAMFQDPQEA [starting variant of the WT decapeptide on array B] | 6 | – |
| TAMFQDVYER [starting variant of the WT decapeptide on array B] | 16 | % of WT signal (array B, mean intensity relative to WT decapeptide of array B, listed as P12V-Q13Y): exceeded 10% |
| TAMFQDYQER [starting variant of the WT decapeptide on array B] | 7 | averaged fluorescence signal as % of that recorded with the WT peptide (array not stated at the place (arrays A and B)): < 10% |
| TAMFQDVFER [starting variant of the WT decapeptide on array A] | – | % of WT signal [2]: 14%; % of WT signal (array A, mean intensity relative to WT decapeptide of array A, listed as P12V-Q13F): exceeded 10% |
| TAMFQDPQEQ [starting variant of the WT decapeptide on array B] | 24 | – |
| TAMFQDVQER [starting variant of the WT decapeptide on array B] | 16 | – |
| TAMFQSPYER [starting variant of the WT decapeptide on array A] | – | % of WT signal [2]: 21%; % of WT signal (array A, mean intensity relative to WT decapeptide of array A, listed as D11S-Q13Y): exceeded 10% |
| TAMFQDPYER [starting variant of the WT decapeptide on array B] | 37 | – |
| TRMFQDVQER [starting variant of the WT decapeptide on array A] | – | % of WT signal [2]: 5% |
| TAMFQDHQER [starting variant of the WT decapeptide on array B] | 4 | – |
| TAMLADPQER [starting variant of the WT decapeptide on array B] | 3 | – |
| TAMFADPQER [starting variant of the WT decapeptide on array B] | 2 | – |
| TAMFQDPSFM [starting variant of the WT decapeptide on array B] | 2 | – |
| TAMFKDPQER [starting variant of the WT decapeptide on array B] | 2 | – |
| TGSFQDPQER [starting variant of the WT decapeptide on array B] | 66 | % of WT signal (array B, mean intensity relative to WT decapeptide of array B, listed as A7G-M8S): exceeded 10% |
| TAMFQDQQER [starting variant of the WT decapeptide on array B] | 5 | – |
| TQMFQDPYER [starting variant of the WT decapeptide on array A] | – | % of WT signal [2]: 23%; % of WT signal (array A, mean intensity relative to WT decapeptide of array A, listed as A8Q-Q13Y): exceeded 10% |
| TGSFQRASFM [starting variant of the WT decapeptide on array B] | 2 | – |
| TAMFQDPFER [starting variant of the WT decapeptide on array B] | 68 | – |
| TAMDQDPQER [starting variant of the WT decapeptide on array B] | 3 | – |
| TAMLQDPQER [starting variant of the WT decapeptide on array B] | 3 | – |
